Data as given in US8853359B2, “Endokinin C/D-derived peptides” (University of Miyazaki, priority 2009, dated 2014).
Entries after “also recorded” stand apart in the source; their conditions may differ. Square brackets hold non-standard residues; d marks the D form. Ends that are not written are not given here.

What was measured:
[1] = tested on: substance P-induced scratching behavior; assay: substance P-induced scratching behavior after intrathecal pre-administration of test peptide; format: in vivo, rat; details: for number of scratching events induced by substance P, relative to control group (saline+SP = 100%): 10^-3M (10 nmol/10 μl) peptide intrathecal, 10^-3M SP 30 minutes after peptide; for number of scratching events induced by substance P, relative to control group (saline+SP = 100%) / number of scratching events induced by substance P, relative to control group: FIG. 1; for scratching behavior induced by substance P / suppressive effects on scratching as administration interval is prolonged: Example 2, FIG. 2; for scratching behavior induced by substance P / suppressive effects on scratching as administration interval is prolonged / scratching behavior induced by substance P / suppressive effects: 10^-3M peptide; for scratching behavior induced by substance P / scratching behavior induced by substance P / suppressive effects: SP 4 hours after peptide; for scratching behavior induced by substance P: control about 380 scratching; for suppressive effects on scratching as administration interval is prolonged: interval 8 hours and then 14 hours; for scratching behavior induced by substance P / suppressive effects: Example 3, FIG. 3, control 380 scratching
Method: In Example 1, 10^−3M (10 nmol/10 μl) EKC/D or D-EKC/D (1), (2) or (3) was administered to intrathecally catheterized rats via catheters. After the predetermined time periods denoted on the horizontal axis in FIG. 1, the numbers of scratching events (scratching behavior) induced by intrathecal administration of 10^−3M (10 nmol/10 μl) substance P (hereafter, referred to as “SP”) were determined. Here, the expression “10^−3M (10 nmol/10 μl) EKC/D or D-EKC/D (1), (2), or (3) was administered” refers to a situation in which 10 μl in total of a solution (that is, 10^−3M solution) containing 10 nmol of EKC/D or D-EKC/D (1), (2), or (3) was all administered. The expression, “ . . . administration of 10^−3M substance P (10 nmol/10 μl)” refers to a situation in which 10 μl in total of a solution (that is, 10^−3M solution) containing 10 nmol of the substance was all administered. The same similarly applies below.
Meanwhile, saline (10 μl) was intrathecally administered to intrathecally catheterized rats via catheters and then, after 30 minutes, 10^−3M SP (10 nmol/10 μl) was intrathecally administered to the rats. The number of the thus induced scratching events was determined to be the number of scratching events in the control group. The control group is denoted with saline-4-SP in FIG. 1.
The vertical axis of the graph in FIG. 1 indicates changes in the numbers of scratching events (represented by relative values) due to administration of 10^−3M EKC/D or D-EKC/D (1), (2), or (3) when the number of scratching events (of untreated rats in a control group) induced by intrathecal administration of 10^−3M substance P was determined to be 100%. Meanwhile, the horizontal axis indicates the intervals between the administration of EKC/D, D-EKC/D (1), (2), or (3) and 10^−3M substance P. […]
The test was conducted with procedures similar to those in Example 1, except for 4 hours of interval between the administration of each test peptide and the administration of substance P. The concentration of each test peptide and that of substance P for administration were determined to be 10^−3M (10 nmol/10 μl), similarly to Example 1. The number of scratching events in the control group was determined with procedures similar to those in Example 1, such that substance P was administered at 30 minutes after administration of saline (10 μl) and then the number was determined.

[2] = tested on: SP-induced thermal hyperalgesia; assay: SP-induced thermal hyperalgesia (withdrawal latency) after intrathecal pre-administration of peptide; format: in vivo, rat; details: 10^-3M (10 nmol/10 μl) peptide intrathecal, FIG. 7
Source text: In this test, the effects of intrathecal pre-administration with D-EKC/D (1), (2), and (3) on the induction of thermal hyperalgesia following intrathecal administration of SP were confirmed using as an index thermal hyperalgesia, which is one type of pain-related behavior. The effects can be evaluated based on withdrawal latency period, which is the time required for withdrawal response to take place after application of noxious thermal stimulation to plantar using infrared rays.
In Example 4, 10^−3M (10 nmol/10 μl) D-EKC/D (1), (2), or (3) was administered to intrathecally catheterized rats via catheters, intrathecal administration of 10^−6M (10 pmol/10 μl) SP was performed at 4 hours and at 8 hours after administration of D-EKC/D, the presence or the absence of hyperalgesia following intrathecal administration of SP was evaluated based on the time (latency period) required for withdrawal response to take place, the latency period following SP administration in rats pretreated with D-EKC/D and the latency period resulting from administration of SP alone were compared, and thus the effects of preadministration of D-EKC/D (1), (2), and (3) were evaluated.

[3] = 10^-3M peptide intrathecal, SP 1 hour after peptide
[4] = 10^-6M SP 4 hours later, saline about 20 seconds, SP about 13 seconds
[5] = 10^-3M (10 nmol/10 μl) Spantide I intrathecal, FIG. 6

Ala-Tyr-Gln-Leu-Glu-His-Thr-DTrp-Gln-DTrp-Leu-Leu-NH2 (AYQLEHTXQXLL; HELM PEPTIDE1{A.Y.Q.L.E.H.T.[dW].Q.[dW].L.L.[am]}$$$$V2.0; N-terminus assumed; SMILES CC(C)C[C@H](NC(=O)[C@H](CC(C)C)NC(=O)[C@@H](Cc1c[nH]c2ccccc12)NC(=O)[C@H](CCC(N)=O)NC(=O)[C@@H](Cc1c[nH]c2ccccc12)NC(=O)[C@@H](NC(=O)[C@H](Cc1c[nH]cn1)NC(=O)[C@H](CCC(=O)O)NC(=O)[C@H](CC(C)C)NC(=O)[C@H](CCC(N)=O)NC(=O)[C@H](Cc1ccc(O)cc1)NC(=O)[C@H](C)N)[C@@H](C)O)C(N)=O) [D-EKC/D (1)]
number of scratching events induced by substance P, relative to control group (saline+SP = 100%) [1]: about 40%
duration of suppressive effects on substance P-induced scratching behavior ([1]; 10^-3M peptide intrathecal, 10^-3M SP): almost the same as that of the EKC/D consisting only of L-type amino acids
number of scratching events induced by substance P, relative to control group [1, 3]: disappeared
effect on latency period following administration of SP [2, 4]: significantly attenuated
effect on latency period following administration of SP ([2]; 10^-6M SP 8 hours later): differs from D-EKC/D (2) and (3) in duration of effectiveness

Ala-Tyr-Gln-Leu-Glu-His-Thr-DTrp-Gln-Gly-Leu-Leu-NH2 (AYQLEHTXQGLL; HELM PEPTIDE1{A.Y.Q.L.E.H.T.[dW].Q.G.L.L.[am]}$$$$V2.0; N-terminus assumed; SMILES CC(C)C[C@H](NC(=O)[C@H](CC(C)C)NC(=O)CNC(=O)[C@H](CCC(N)=O)NC(=O)[C@@H](Cc1c[nH]c2ccccc12)NC(=O)[C@@H](NC(=O)[C@H](Cc1c[nH]cn1)NC(=O)[C@H](CCC(=O)O)NC(=O)[C@H](CC(C)C)NC(=O)[C@H](CCC(N)=O)NC(=O)[C@H](Cc1ccc(O)cc1)NC(=O)[C@H](C)N)[C@@H](C)O)C(N)=O) [D-EKC/D (2)]
number of scratching events induced by substance P, relative to control group (saline+SP = 100%) [1]: about 20%
number of scratching events induced by substance P, relative to control group [1, 3]: slight tendency of restoration
number of scratching events induced by substance P, relative to control group ([1]; 10^-3M peptide intrathecal, administration interval of 45 minutes): almost the same effects were exhibited
effect on latency period following administration of SP [2, 4]: significantly attenuated
effect on latency period following administration of SP ([2]; 10^-6M SP 8 hours later): significant attenuation

DArg-Pro-Lys-Pro-Gln-Gln-DTrp-Phe-DTrp-Leu-Leu-NH2 ([dR]PKPQQ[dW]F[dW]LL-NH2) [Spantide I, reference compound]
duration of suppressive effects on substance P-induced scratching behavior [1, 5]: ≤ 30 min
effect on substance P-induced scratching behavior [1, 5]: suppressed

His-Thr-Phe-Gln-DTrp-Leu-Leu-NH2 (HTFQXLL; HELM PEPTIDE1{H.T.F.Q.[dW].L.L.[am]}$$$$V2.0; N-terminus assumed; SMILES CC(C)C[C@H](NC(=O)[C@H](CC(C)C)NC(=O)[C@@H](Cc1c[nH]c2ccccc12)NC(=O)[C@H](CCC(N)=O)NC(=O)[C@H](Cc1ccccc1)NC(=O)[C@@H](NC(=O)[C@@H](N)Cc1c[nH]cn1)[C@@H](C)O)C(N)=O) [D-EKC/D (6)]
scratching behavior induced by substance P [1]: significant suppressive effects were observed
suppressive effects on scratching as administration interval is prolonged [1]: attenuated
scratching behavior induced by substance P / suppressive effects [1]: attenuated

Leu-Glu-His-Thr-Phe-Gln-DTrp-Leu-Leu-NH2 (LEHTFQXLL; HELM PEPTIDE1{L.E.H.T.F.Q.[dW].L.L.[am]}$$$$V2.0; N-terminus assumed; SMILES CC(C)C[C@H](NC(=O)[C@H](CC(C)C)NC(=O)[C@@H](Cc1c[nH]c2ccccc12)NC(=O)[C@H](CCC(N)=O)NC(=O)[C@H](Cc1ccccc1)NC(=O)[C@@H](NC(=O)[C@H](Cc1c[nH]cn1)NC(=O)[C@H](CCC(=O)O)NC(=O)[C@@H](N)CC(C)C)[C@@H](C)O)C(N)=O) [D-EKC/D (4)]
scratching behavior induced by substance P [1]: never induced
suppressive effects on scratching as administration interval is prolonged [1]: gradually attenuated
suppressive effects compared with [D-Trp^10]-EKC/D consisting of 12 amino acids ([1]; Example 2 discussion): suppressive effects almost similar to those of [D-Trp^10]-EKC/D
scratching behavior induced by substance P / suppressive effects [1]: attenuated

Phe-Gln-DTrp-Leu-Leu-NH2 (FQXLL; HELM PEPTIDE1{F.Q.[dW].L.L.[am]}$$$$V2.0; N-terminus assumed; SMILES CC(C)C[C@H](NC(=O)[C@H](CC(C)C)NC(=O)[C@@H](Cc1c[nH]c2ccccc12)NC(=O)[C@H](CCC(N)=O)NC(=O)[C@@H](N)Cc1ccccc1)C(N)=O) [D-EKC/D (8)]
scratching behavior induced by substance P / suppressive effects [1]: Almost no suppressive effects; also recorded: almost the same as that of the control group

Thr-Phe-Gln-DTrp-Leu-Leu-NH2 (TFQXLL; HELM PEPTIDE1{T.F.Q.[dW].L.L.[am]}$$$$V2.0; N-terminus assumed; SMILES CC(C)C[C@H](NC(=O)[C@H](CC(C)C)NC(=O)[C@@H](Cc1c[nH]c2ccccc12)NC(=O)[C@H](CCC(N)=O)NC(=O)[C@H](Cc1ccccc1)NC(=O)[C@@H](N)[C@@H](C)O)C(N)=O) [D-EKC/D (7)]
scratching behavior induced by substance P / suppressive effects [1]: attenuated; also recorded: minimum suppressive effects
